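Grown in 96-well plates, cells were treated for 48 hours with each compound at five concentrations. Insufficient inhibition: endpoint recorded as highest concentration tested. GI50 is the concentration that inhibits growth by half. Definition used: TGI = concentration required for complete inhibition of growth.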

Some test systems named below: EKVX NSCLC; COLO 205 colon; UO-31 renal; UACC-62 melanoma; MOLT-4 leukemia; M14 melanoma; RXF 393 renal; SK-MEL-5 melanoma; MDA-MB-435; TK-10 renal.
What all share (test): NCI anticancer screen, dose series, 48 h

Regarding `O=C1CC(c2cccc(F)c2)Nc2cc3c(cc21)OCO3` (centres undefined), the TGI is more than 100 µM in the experiment on EKVX NSCLC; more than 100 µM in the experiment on UO-31 renal; less than 0.01 µM with UACC-62 melanoma; less than 0.01 µM with MOLT-4 leukemia; more than 100 µM with M14 melanoma; 0.0943 µM in the experiment on RXF 393 renal. Moreover, the TGI in the experiment with SK-MEL-5 melanoma is less than 0.01 µM; in the experiment on MDA-MB-435, less than 0.01 µM; with TK-10 renal, more than 100 µM. For the same compound, the GI50 in the experiment with COLO 205 colon, with UO-31 renal, in the experiment with UACC-62 melanoma, in the experiment on M14 melanoma, in the experiment with SK-MEL-5 melanoma and in the experiment on MDA-MB-435 was less than 0.01 µM throughout. For the same compound, the GI50 in the experiment with TK-10 renal is more than 100 µM.
On to `COc1cc(Nc2ncc(-c3ccccc3)o2)cc(OC)c1`, for which the GI50 with EKVX NSCLC is more than 25 µM; in the experiment on COLO 205 colon, more than 25 µM; in the experiment on UO-31 renal, more than 25 µM; with UACC-62 melanoma it was more than 25 µM; with MOLT-4 leukemia it was more than 18.7 µM; with M14 melanoma it was more than 25 µM. The GI50 in the experiment on RXF 393 renal is 8.4 µM; in the experiment with SK-MEL-5 melanoma, more than 25 µM; in the experiment on MDA-MB-435 it was more than 25 µM; in the experiment with TK-10 renal, more than 25 µM. The TGI in the experiment on EKVX NSCLC, in the experiment on COLO 205 colon, in the experiment with UO-31 renal, in the experiment with UACC-62 melanoma, in the experiment with MOLT-4 leukemia and in the experiment on M14 melanoma was more than 25 µM each time. For the same compound, the TGI in the experiment on RXF 393 renal, with SK-MEL-5 melanoma, with MDA-MB-435 and with TK-10 renal was more than 25 µM throughout.
With `OC(COC(c1ccccc1)(c1ccccc1)c1ccccc1)C(O)CC1SCCS1` (centres undefined), the TGI in the experiment with EKVX NSCLC came out at 30.7 µM; with COLO 205 colon, 38.4 µM; in the experiment on UO-31 renal it was 24.5 µM; in the experiment on UACC-62 melanoma, 36 µM; in the experiment on MOLT-4 leukemia it was 68.7 µM; in the experiment with M14 melanoma it was 84.3 µM. The TGI is 32.1 µM in the experiment on RXF 393 renal, 40.1 µM in the experiment on SK-MEL-5 melanoma, 91.9 µM with MDA-MB-435 and 39.6 µM in the experiment with TK-10 renal.
As to `COc1ccc(C/C(=C(\C)c2ccc(OCCN3CCCC3)cc2)c2ccc(OCCN3CCCC3)cc2)cc1`, the GI50 in the experiment with EKVX NSCLC is 2.21 µM; in the experiment with COLO 205 colon, 1.72 µM; with UO-31 renal, 1.56 µM; in the experiment with UACC-62 melanoma, 1.78 µM; with MOLT-4 leukemia, 1.94 µM; with M14 melanoma, 1.67 µM. Moreover, the GI50 with RXF 393 renal is 1.48 µM; in the experiment with SK-MEL-5 melanoma, 1.72 µM; with MDA-MB-435, 1.7 µM; in the experiment on TK-10 renal, 1.55 µM. Further, the TGI in the experiment with EKVX NSCLC was 5.89 µM; in the experiment with COLO 205 colon, 3.38 µM; in the experiment with UO-31 renal, 2.94 µM; with UACC-62 melanoma, 3.38 µM; in the experiment with MOLT-4 leukemia, 4.51 µM; with M14 melanoma, 3.5 µM. Moreover, the TGI in the experiment with RXF 393 renal turned out to be 2.88 µM; in the experiment with SK-MEL-5 melanoma, 3.11 µM; with MDA-MB-435, 3.24 µM; with TK-10 renal, 3.02 µM.
As for `COC(=O)c1ccc(CN2C(=O)C(Cl)=C(Nc3cccc(Cl)c3C)C2=O)cc1`, the GI50 was 46.8 µM in the experiment with EKVX NSCLC; 19.7 µM in the experiment on COLO 205 colon; 15.1 µM with UO-31 renal; 13.4 µM with UACC-62 melanoma; 5.14 µM in the experiment on MOLT-4 leukemia; 4.01 µM with M14 melanoma. In addition, the GI50 in the experiment with RXF 393 renal is 33.7 µM; in the experiment on SK-MEL-5 melanoma, 1.08 µM; with MDA-MB-435, 7.89 µM; in the experiment on TK-10 renal, 47.8 µM. The TGI in the experiment with EKVX NSCLC, in the experiment with COLO 205 colon, in the experiment on UO-31 renal, in the experiment with UACC-62 melanoma, in the experiment with MOLT-4 leukemia and in the experiment with M14 melanoma was more than 100 µM each time. The TGI with RXF 393 renal was more than 100 µM; in the experiment on SK-MEL-5 melanoma it was 3.94 µM; in the experiment with MDA-MB-435, 37.9 µM; in the experiment with TK-10 renal, more than 100 µM.
On to `COc1ncc(Nc2ncc([C@@H](C)N3CCN(S(C)(=O)=O)CC3)cc2-c2nc(C)nc(N)n2)cc1F`, for which the GI50 is 0.486 µM with EKVX NSCLC; 0.122 µM with COLO 205 colon; less than 0.0114 µM in the experiment on UO-31 renal; less than 0.0113 µM in the experiment with UACC-62 melanoma; 0.0402 µM with MOLT-4 leukemia; 2.16 µM with M14 melanoma. The GI50 with RXF 393 renal is 0.0158 µM; with SK-MEL-5 melanoma, 2.09 µM; in the experiment on MDA-MB-435, 1.15 µM; in the experiment with TK-10 renal it was 0.0222 µM. For the same compound, the TGI in the experiment on EKVX NSCLC is 12.6 µM; in the experiment on COLO 205 colon, 15.3 µM; with UO-31 renal it was 1.89 µM; with UACC-62 melanoma it was 1.2 µM; in the experiment on MOLT-4 leukemia, 4.13 µM; with M14 melanoma it was 38.8 µM. Besides, the TGI in the experiment with RXF 393 renal was 0.453 µM; in the experiment with SK-MEL-5 melanoma, 9.04 µM; in the experiment with MDA-MB-435, more than 100 µM; with TK-10 renal, 1.22 µM.
In the case of `CCOCCCn1c2c(c3c(O)cccc31)C(=O)c1ccccc1-2`, the GI50 is 24.3 µM in the experiment on EKVX NSCLC; 16 µM with COLO 205 colon; 15.9 µM with UO-31 renal; 14.5 µM with UACC-62 melanoma; 13.7 µM in the experiment with MOLT-4 leukemia; 16.2 µM in the experiment on M14 melanoma. In addition, the GI50 is 30.3 µM with RXF 393 renal, 15.8 µM in the experiment with SK-MEL-5 melanoma, 18.4 µM in the experiment with MDA-MB-435 and 23.4 µM in the experiment with TK-10 renal. For the same compound, the TGI in the experiment with EKVX NSCLC amounted to 79 µM; in the experiment with COLO 205 colon, 33.3 µM; in the experiment with UO-31 renal it was 38.4 µM; in the experiment on UACC-62 melanoma, 30.1 µM; in the experiment on MOLT-4 leukemia, 32.7 µM; with M14 melanoma, 31.5 µM. Also, the TGI was 82.1 µM in the experiment on RXF 393 renal, 29.8 µM with SK-MEL-5 melanoma, 46.5 µM with MDA-MB-435 and 76.2 µM in the experiment on TK-10 renal.
For `O=S(=O)(O)c1cc(O)c(N=Nc2ccc(O)cc2O)c2ccccc12`, the TGI in the experiment with EKVX NSCLC, with COLO 205 colon, in the experiment on MOLT-4 leukemia, in the experiment with M14 melanoma, in the experiment on RXF 393 renal and in the experiment with SK-MEL-5 melanoma was more than 100 µM in each case. The TGI in the experiment with MDA-MB-435 and in the experiment with TK-10 renal was more than 100 µM each time.

The record behind these values is PubChem BioAssay (NCI).
